Data: PubChem BioAssay (NCI)
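Each compound was tested at five concentrations against cells in 96-well plates for 48 hours. TGI: total growth inhibition.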

Key:
Test in all cases: NCI tumour cell line growth inhibition, 48 h
HCT-116 colon = tested on: HCT-116 colon
MDA-N = tested on: MDA-N
SF-268 CNS = tested on: SF-268 CNS
BT-549 breast = tested on: BT-549 breast
ACHN renal = tested on: ACHN renal
NCI-H226 lung = tested on: NCI-H226 lung
SF-295 CNS = tested on: SF-295 CNS
OVCAR-4 ovarian = tested on: OVCAR-4 ovarian
A498 renal = tested on: A498 renal
SNB-19 CNS = tested on: SNB-19 CNS
SR leukemia = tested on: SR leukemia
RXF 393 renal = tested on: RXF 393 renal
RPMI-8226 leukemia = tested on: RPMI-8226 leukemia
PC-3 prostate = tested on: PC-3 prostate
SW-620 colon = tested on: SW-620 colon
UACC-62 melanoma = tested on: UACC-62 melanoma
SF-539 CNS = tested on: SF-539 CNS
OVCAR-5 ovarian = tested on: OVCAR-5 ovarian
SK-MEL-28 melanoma = tested on: SK-MEL-28 melanoma
SK-MEL-2 melanoma = tested on: SK-MEL-2 melanoma
HL-60(TB) leukemia = tested on: HL-60(TB) leukemia
HOP-92 NSCLC = tested on: HOP-92 NSCLC
NCI-H522 lung = tested on: NCI-H522 lung
HS 578T breast = tested on: HS 578T breast
HT29 colon = tested on: HT29 colon
IGROV1 ovarian = tested on: IGROV1 ovarian
CCRF-CEM leukemia = tested on: CCRF-CEM leukemia
NCI-H23 lung = tested on: NCI-H23 lung
K-562 leukemia = tested on: K-562 leukemia
UACC-257 melanoma = tested on: UACC-257 melanoma
COLO 205 colon = tested on: COLO 205 colon
OVCAR-8 ovarian = tested on: OVCAR-8 ovarian
NCI/ADR-RES ovarian = tested on: NCI/ADR-RES ovarian
MCF7 breast = tested on: MCF7 breast
MDA-MB-435 = tested on: MDA-MB-435
CAKI-1 renal = tested on: CAKI-1 renal
KM12 colon = tested on: KM12 colon
HOP-62 NSCLC = tested on: HOP-62 NSCLC
LOX IMVI melanoma = tested on: LOX IMVI melanoma
UO-31 renal = tested on: UO-31 renal
SN12C renal = tested on: SN12C renal
NCI-H460 lung = tested on: NCI-H460 lung
786-0 renal = tested on: 786-0 renal
HCT-15 colon = tested on: HCT-15 colon
SK-OV-3 ovarian = tested on: SK-OV-3 ovarian
OVCAR-3 ovarian = tested on: OVCAR-3 ovarian
A549 NSCLC = tested on: A549 NSCLC
M14 melanoma = tested on: M14 melanoma
EKVX NSCLC = tested on: EKVX NSCLC
U251 CNS = tested on: U251 CNS
MDA-MB-231 breast = tested on: MDA-MB-231 breast
SK-MEL-5 melanoma = tested on: SK-MEL-5 melanoma
MALME-3M melanoma = tested on: MALME-3M melanoma
MOLT-4 leukemia = tested on: MOLT-4 leukemia
TK-10 renal = tested on: TK-10 renal
T-47D breast = tested on: T-47D breast
HCC-2998 colon = tested on: HCC-2998 colon
DU-145 prostate = tested on: DU-145 prostate
SNB-75 CNS = tested on: SNB-75 CNS

Measured: TGI

CN(C)CC(CN(C)C)c1ccccn1
not listed: T-47D breast | HCC-2998 colon | DU-145 prostate | SNB-75 CNS
> 100 µM: all other assays above

CNC(=O)N1CCN(C(=O)NC)CCN(C(=O)NC)CC1
not listed: OVCAR-4 ovarian | SF-539 CNS | MDA-MB-435 | CAKI-1 renal | KM12 colon | OVCAR-3 ovarian
> 100 µM: all other assays above
